In patent US4201782A, “Thiadiazolyl cephalosporin analogs” (Shionogi & Co., Ltd., priority 1977, dated 1980):

How the values were obtained:
S. aureus 209P JC-1 = assay: MIC by agar-dilution, S. aureus 209P JC-1; assay type: cell-based; conditions: Staphylococcus aureus, as sodium salt, pH 7.0, inoculum 10^6, read-out: Minimal Inhibitory Concentration
S. aureus Smith = assay: MIC by agar-dilution, S. aureus Smith; assay type: cell-based; conditions: Staphylococcus aureus, as sodium salt, pH 7.0, inoculum 10^6, read-out: Minimal Inhibitory Concentration
S. aureus 077 = assay: MIC by agar-dilution, S. aureus 077; assay type: cell-based; conditions: Staphylococcus aureus, as sodium salt, pH 7.0, inoculum 10^6, read-out: Minimal Inhibitory Concentration
S. aureus C-14 = assay: MIC by agar-dilution, S. aureus C-14; assay type: cell-based; conditions: Staphylococcus aureus, C14, as sodium salt, pH 7.0, inoculum 10^6, read-out: Minimal Inhibitory Concentration
S. pyogenes C-203 = assay: MIC by agar-dilution, S. pyogenes C-203; assay type: cell-based; conditions: Streptococcus pyogenes, C203, as sodium salt, pH 7.0, inoculum 10^6, read-out: Minimal Inhibitory Concentration
S. pneumoniae I = assay: MIC by agar-dilution, S. pneumoniae I; assay type: cell-based; conditions: Streptococcus pneumoniae, as sodium salt, pH 7.0, inoculum 10^6, read-out: Minimal Inhibitory Concentration
E. coli H = assay: MIC by agar-dilution, E. coli H; assay type: cell-based; conditions: Escherichia coli, as sodium salt, pH 7.0, inoculum 10^6, read-out: Minimal Inhibitory Concentration
E. coli NIHJ JC-2 = assay: MIC by agar-dilution, E. coli NIHJ JC-2; assay type: cell-based; conditions: Escherichia coli, NIHJJC2, as sodium salt, pH 7.0, inoculum 10^6, read-out: Minimal Inhibitory Concentration
E. coli EC-14 = assay: MIC by agar-dilution, E. coli EC-14; assay type: cell-based; conditions: Escherichia coli, EC14, as sodium salt, pH 7.0, inoculum 10^6, read-out: Minimal Inhibitory Concentration
E. coli 377 = assay: MIC by agar-dilution, E. coli 377; assay type: cell-based; conditions: Escherichia coli, as sodium salt, pH 7.0, inoculum 10^6, read-out: Minimal Inhibitory Concentration
E. coli 73 = assay: MIC by agar-dilution, E. coli 73; assay type: cell-based; conditions: Escherichia coli, as sodium salt, pH 7.0, inoculum 10^6, read-out: Minimal Inhibitory Concentration
K. pneumoniae SHIONOGI = assay: MIC by agar-dilution, K. pneumoniae SHIONOGI; assay type: cell-based; conditions: Klebsiella pneumoniae, as sodium salt, pH 7.0, inoculum 10^6, read-out: Minimal Inhibitory Concentration
K. pneumoniae 363 = assay: MIC by agar-dilution, K. pneumoniae 363; assay type: cell-based; conditions: Klebsiella pneumoniae, as sodium salt, pH 7.0, inoculum 10^6, read-out: Minimal Inhibitory Concentration
P. mirabilis PR-4 = assay: MIC by agar-dilution, P. mirabilis PR-4; assay type: cell-based; conditions: Proteus mirabilis, PR4, as sodium salt, pH 7.0, inoculum 10^6, read-out: Minimal Inhibitory Concentration
P. morganii No. 9 = assay: MIC by agar-dilution, P. morganii No. 9; assay type: cell-based, Proteus morganii; conditions: Morganella morganii, as sodium salt, pH 7.0, inoculum 10^6, read-out: Minimal Inhibitory Concentration
P. vulgaris CN-329 = assay: MIC by agar-dilution, P. vulgaris CN-329; assay type: cell-based; conditions: Proteus vulgaris, CN329, as sodium salt, pH 7.0, inoculum 10^6, read-out: Minimal Inhibitory Concentration
P. vulgaris No. 3 = assay: MIC by agar-dilution, P. vulgaris No. 3; assay type: cell-based; conditions: Proteus vulgaris, as sodium salt, pH 7.0, inoculum 10^6, read-out: Minimal Inhibitory Concentration
E. cloacae 233 = assay: MIC by agar-dilution, E. cloacae 233; assay type: cell-based; conditions: Enterobacter cloacae, as sodium salt, pH 7.0, inoculum 10^6, read-out: Minimal Inhibitory Concentration
E. cloacae 13047 = assay: MIC by agar-dilution, E. cloacae 13047; assay type: cell-based; conditions: Enterobacter cloacae, as sodium salt, pH 7.0, inoculum 10^6, read-out: Minimal Inhibitory Concentration
S. marcescens 13880 = assay: MIC by agar-dilution, S. marcescens 13880; assay type: cell-based; conditions: Serratia marcescens, as sodium salt, pH 7.0, inoculum 10^6, read-out: Minimal Inhibitory Concentration
P. aeruginosa 25619 = assay: MIC by agar-dilution, P. aeruginosa 25619; assay type: cell-based; conditions: Pseudomonas aeruginosa, as sodium salt, pH 7.0, inoculum 10^6, read-out: Minimal Inhibitory Concentration

| SMILES | MIC (S. aureus 209P JC-1) [µg/mL] | MIC (S. aureus Smith) [µg/mL] | MIC (S. aureus 077) [µg/mL] | MIC (S. aureus C-14) [µg/mL] | MIC (S. pyogenes C-203) [µg/mL] | MIC (S. pneumoniae I) [µg/mL] | MIC (E. coli H) [µg/mL] | MIC (E. coli NIHJ JC-2) [µg/mL] | MIC (E. coli EC-14) [µg/mL] | MIC (E. coli 377) [µg/mL] | MIC (E. coli 73) [µg/mL] | MIC (K. pneumoniae SHIONOGI) [µg/mL] | MIC (K. pneumoniae 363) [µg/mL] | MIC (P. mirabilis PR-4) [µg/mL] | MIC (P. morganii No. 9) [µg/mL] | MIC (P. vulgaris CN-329) [µg/mL] | MIC (P. vulgaris No. 3) [µg/mL] | MIC (E. cloacae 233) [µg/mL] | MIC (E. cloacae 13047) [µg/mL] | MIC (S. marcescens 13880) [µg/mL] | other results |
| --- | --- | --- | --- | --- | --- | --- | --- | --- | --- | --- | --- | --- | --- | --- | --- | --- | --- | --- | --- | --- | --- |
| CO[C@@]1(NC(=O)C(C(=O)O)c2ccc(O)cc2)C(=O)N2C(C(=O)O)=C(CSc3nncs3)CO[C@@H]21 (stereo partly drawn) [Compound (2), 7α-methoxy-7β-(α-p-hydroxyphenyl-α-carboxyacetamido)-3-(1,3,4-thiadiazol-5-yl)thiomethyl-1-dethia-1-oxa-3-cephem-4-carboxylic acid] | 12.5 | 12.5 | 25 | 25 | 3.13 | 6.25 | 0.2 | 0.39 | 0.39 | 0.78 | 3.13 | 0.39 | 0.39 | 0.39 | 0.78 | 0.78 | 0.78 | 6.25 | 25 | 1.56 | MIC (P. aeruginosa 25619): 25 µg/mL |
| CO[C@@]1(NC(=O)C(C(=O)O)c2ccc(O)cc2)C(=O)N2C(C(=O)O)=C(CSc3nnc(C)s3)CO[C@@H]21 (stereo partly drawn) [Compound (1), 7α-methoxy-7β-(α-p-hydroxyphenyl-α-carboxyacetamido)-3-(2-methyl-1,3,4-thiadiazol-5-yl)thiomethyl-1-dethia-1-oxa-3-cephem-4-carboxylic acid] | 12.5 | 25 | 25 | 25 | 3.13 | 3.13 | 0.2 | 0.78 | 0.78 | 1.56 | 6.25 | 0.78 | 0.39 | 0.39 | 0.78 | 0.39 | 0.78 | 1.6 | 50 | 3.13 | MIC (P. aeruginosa 25619): 25 µg/mL |
| CO[C@@]1(NC(=O)C(C(=O)O)c2ccsc2)C(=O)N2C(C(=O)O)=C(CSc3nnc(C)s3)CO[C@@H]21 (stereo partly drawn) [Compound (3), 7α-methoxy-7β-[α-(3-thienyl)-α-carboxyacetamido]-3-(2-methyl-1,3,4-thiadiazol-5-yl)thiomethyl-1-dethia-1-oxa-3-cephem-4-carboxylic acid] | 6.25 | 6.25 | 6.25 | 6.25 | 0.78 | 3.13 | 0.05 | 0.39 | 0.2 | 0.78 | 1.56 | 0.2 | 0.78 | 0.1 | 0.2 | 0.1 | 0.39 | 12.5 | 25 | 1.56 | MIC (P. aeruginosa 25619): 25 µg/mL |
| CO[C@@]1(NC(=O)C(C(=O)O)c2ccsc2)C(=O)N2C(C(=O)O)=C(CSc3nncs3)CO[C@@H]21 (stereo partly drawn) [Compound (4), 7α-methoxy-7β-[α-(3-thienyl)-α-carboxyacetamido]-3-(1,3,4-thiadiazol-5-yl)thiomethyl-1-dethia-1-oxa-3-cephem-4-carboxylic acid] | 6.25 | 6.25 | 6.25 | 6.25 | 3.13 | 6.25 | 0.1 | 0.2 | 0.1 | 0.39 | 0.78 | 0.2 | 0.2 | 0.2 | 0.2 | 0.2 | 0.39 | 6.25 | 12.5 | 0.39 | MIC (P. aeruginosa 25619): 25 µg/mL |
